Test system: AKT protein phosphorylated on serine 473 (P-AKT-S473) in PC3 human prostate carcinoma cells
Test: pAKT expression in PC3 human prostate carcinoma cells, MSD Multi-spot Biomarker detection (Test A)
Assay type: cell-based
Settings: Homo sapiens, PC-3, PC3 cells, 1 to 2 h incubation, P-AKT-S473, absolute IC50, mean of two independent experiments
How it was run: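 Lysate pAKT-S473 measured by electrochemiluminescent sandwich immunoassay; inhibition versus cell-free background and DMSO-only wells, IC50 averaged over two experiments.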

Compound	IC50 [nM]
COc1ccccc1-c1cccc2c1CCN2C(=O)Cc1nc(N2CCOCC2)cc(=O)[nH]1 [Example 6d, 2-{2-[4-(2-methoxyphenyl)-2,3-dihydro-1H-indol-1-yl]-2-oxoethyl}-6-(morpholin-4-yl)pyrimidin-4(3H)-one]	32
Cn1c(CC(=O)N2CCc3c(F)cccc32)nc(N2CCOCC2)cc1=S [Example 6e, 1-(4-fluoro-2,3-dihydroindol-1-yl)-2-(1-methyl-4-morpholin-4-yl-6-thioxo-1,6-dihydropyrimidin-2-yl)ethanone]	31
Cn1c(CC(=O)N2CC(C)(C)c3c(F)cccc32)nc(N2CCOCC2)cc1=O [Example 7c, 2-[2-(4-fluoro-3,3-dimethyl-2,3-dihydro-1H-indol-1-yl)-2-oxoethyl]-3-methyl-6-(morpholin-4-yl)pyrimidin-4(3H)-one]	45
CCCN1CCCC(c2cccc3c2CCN3C(=O)Cc2nc(N3CCOCC3)cc(=O)[nH]2)C1 (centres unmarked) [Example 7d, 6-(morpholin-4-yl)-2-{2-oxo-2-[4-(1-propylpiperidin-3-yl)-2,3-dihydro-4H-indol-1-yl]ethyl}pyrimidin-4(3H)-one]	102
Cn1c(CC(=O)N2CCc3c(Cl)cccc32)nc(N2CCOCC2)cc1=S [Example 7e, 1-(4-chloro-2,3-dihydroindol-1-yl)-2-(1-methyl-4-morpholin-4-yl-6-thioxo-1,6-dihydropyrimidin-2-yl)ethanone]	33
C[C@H]1Cc2ccccc2N1C(=O)Cc1nc(N2CCOCC2)c(F)c(=O)n1C [Example 8a, 5-fluoro-3-methyl-2-{2-[(2S)-2-methyl-2,3-dihydro-1H-indol-1-yl]-2-oxoethyl}-6-(morpholin-4-yl)pyrimidin-4(3H)-one]	107
CC1(C)CN(C(=O)Cc2nc(N3CCOCC3)cc(=O)[nH]2)c2cccc(F)c21 [Example 8c, 2-[2-(4-fluoro-3,3-dimethyl-2,3-dihydro-1H-indol-1-yl)-2-oxoethyl]-6-(morpholin-4-yl)pyrimidin-4(3H)-one]	52
Cn1c(CC(=O)N2CCc3c(OC(F)F)cccc32)nc(N2CCOCC2)cc1=O [Example 8d, 2-{2-[4-(difluoromethoxy)-2,3-dihydro-1H-indol-1-yl]-2-oxoethyl}-3-methyl-6-(morpholin-4-yl)pyrimidin-4(3H)-one]	60
CC1Cc2c(ccc(F)c2F)N1C(=O)Cc1nc(N2CCOCC2)c(F)c(=S)[nH]1 (stereo not drawn) [Example 8e, 1-((+)-4,5-Difluoro-2-methyl-2,3-dihydroindol-1-yl)-2-(5-fluoro-4-morpholin-4-yl-6-thioxo-1,6-dihydropyrimidin-2-yl)ethanone]	11
C[C@@H]1Cc2ccccc2N1C(=O)Cc1nc(N2CCOCC2)c(F)c(=O)n1C [Example 9a, 5-fluoro-3-methyl-2-{2-[(2R)-2-methyl-2,3-dihydro-1H-indol-1-yl]-2-oxoethyl}-6-(morpholin-4-yl)pyrimidin-4(3H)-one]	120
O=C(Cc1nc(N2CCOCC2)cc(=O)[nH]1)N1CCc2c(OC(F)F)cccc21 [Example 9d, 2-{2-[4-(difluoromethoxy)-2,3-dihydro-1H-indol-1-yl]-2-oxoethyl}-6-(morpholin-4-yl)pyrimidin-4(3H)-one]	44
CC1Cc2c(ccc(F)c2F)N1C(=S)Cc1nc(N2CCOCC2)c(F)c(=S)[nH]1 (stereo not drawn) [Example 9e, 2-[2-((+)-4,5-Difluoro-2-methyl-2,3-dihydroindol-1-yl)-2-thioxoethyl]-5-fluoro-6-morpholin-4-yl-3H-pyrimidine-4-thione]	1
O=C(Cc1nc(N2CCOCC2)cc(=O)[nH]1)N1CCc2c(-c3ccncc3)cccc21 [Example 10d, 6-(morpholin-4-yl)-2-{2-oxo-2-[4-(pyridin-4-yl)-2,3-dihydro-1H-indol-1-yl]ethyl}pyrimidin-4(3H)-one]	94
C[C@H]1Cc2ccccc2N1C(=O)Cc1nc(N2CCOCC2)c(F)c(=S)[nH]1 [Example 10e, 2-(5-fluoro-4-morpholin-4-yl-6-thioxo-1,6-dihydropyrimidin-2-yl)-1-((S)-2-methyl-2,3-dihydroindol-1-yl)ethanone]	221
O=C(Cc1nc(N2CCOC3CCCC32)cc(=O)[nH]1)N1CCc2c(F)cccc21 (centres unmarked) [Example 11b, 2-[2-(4-fluoro-2,3-dihydroindol-1-yl)-2-oxoethyl]-6-(hexahydrocyclopenta[1,4]oxazin-4-yl)-3H-pyrimidin-4-one]	12
CN1CCC2(CC1)CN(C(=O)Cc1nc(N3CCOCC3)cc(=O)[nH]1)c1ccccc12 [Example 11d, 2-[2-(1′-methylspiro[indole-3,4′-piperidin]-1(2H)-yl)-2-oxoethyl]-6-(morpholin-4-yl)pyrimidin-4(3H)-one]	26
C[C@@H]1Cc2ccccc2N1C(=O)Cc1nc(N2CCOCC2)c(F)c(=S)[nH]1 [Example 11e, 2-(5-fluoro-4-morpholin-4-yl-6-thioxo-1,6-dihydropyrimidin-2-yl)-1-((R)-2-methyl-2,3-dihydroindol-1-yl)ethanone]	61
O=C(Cc1nc(-c2ccncc2)cc(=O)[nH]1)N1CCc2c(F)cccc21 [Example 12b, 2-[2-(4-fluoro-2,3-dihydroindol-1-yl)-2-oxoethyl]-6-pyridin-4-yl-3H-pyrimidin-4-one]	370
O=C(Cc1nc(N2CCOCC2)cc(=O)[nH]1)N1CCc2c(-c3ccccn3)cccc21 [Example 12d, 6-(morpholin-4-yl)-2-{2-oxo-2-[4-(pyridin-2-yl)-2,3-dihydro-1H-indol-1-yl]ethyl}pyrimidin-4(3H)-one]	66
COc1cc(-c2cc(=O)[nH]c(CC(=O)N3CCc4c(F)cccc43)n2)ccn1 [Example 13b, 2-[2-(4-fluoro-2,3-dihydroindol-1-yl)-2-oxoethyl]-6-(2-methoxypyridin-4-yl)-3H-pyrimidin-4-one]	3000
O=C(Cc1nc(N2CCOCC2)cc(=O)[nH]1)N1CCc2c(-c3cccnc3)cccc21 [Example 13d, 6-(morpholin-4-yl)-2-{2-oxo-2-[4-(pyridin-3-yl)-2,3-dihydro-1H-indol-1-yl]ethyl}pyrimidin-4(3H)-one]	53
CC1Cc2cc(F)ccc2N1C(=O)Cc1nc(N2CCOCC2)c(F)c(=O)n1C (stereo not drawn) [Example 14a, 5-fluoro-2-[2-((−)-5-fluoro-2-methyl-2,3-dihydroindol-1-yl)-2-oxoethyl]-3-methyl-6-morpholin-4-yl-3H-pyrimidin-4-one]	55
O=C(Cc1nc(N2CCOCC2)cc(=O)[nH]1)N1CCc2c(-c3ccccc3Cl)cccc21 [Example 14d, 2-{2-[4-(2-chlorophenyl)-2,3-dihydro-1H-indol-1-yl]-2-oxoethyl}-6-(morpholin-4-yl)pyrimidin-4(3H)-one]	42
O=C(Cc1nc(N2CCOCC2)cc(=O)n1C1CC1)N1CCc2c(Cl)cccc21 [Example 15d, 2-[2-(4-chloro-2,3-dihydro-1H-indol-1-yl)-2-oxoethyl]-3-cyclopropyl-6-(morpholin-4-yl)pyrimidin-4(3H)-one]	37
O=C(Cc1nc(N2CCOCC2)cc(=O)[nH]1)N1c2ccccc2C2CCCC21 (centres unmarked) [Example 16d, 6-(morpholin-4-yl)-2-[2-oxo-2-(2,3,3a,8b-tetrahydrocyclopenta[b]indol-4(1H)-yl)ethyl]pyrimidin-4(3H)-one]	30

Same assay, conditions: PC3 cells, 1 to 2 h incubation, P-AKT-S473, absolute IC50, mean of two independent experiments

Compound	IC50 [nM]
CC1Cc2cc(F)ccc2N1C(=O)Cc1nc(N2CCOCC2)c(F)c(=O)[nH]1 (stereo not drawn) [Example 6a, 5-fluoro-2-[2-((+)-5-fluoro-2-methyl-2,3-dihydroindol-1-yl)-2-oxoethyl]-6-morpholin-4-yl-3H-pyrimidin-4-one]	10
O=C(Cc1nc(N2CCOC(CF)C2)cc(=O)[nH]1)N1CCc2c(F)cccc21 (centres unmarked) [Example 6b, 2-[2-(4-fluoro-2,3-dihydroindol-1-yl)-2-oxoethyl]-6-(2-fluoromethylmorpholin-4-yl)-3H-pyrimidin-4-one]	58
CC1Cc2c(O)cccc2N1C(=O)Cc1nc(N2CCOCC2)cc(=O)[nH]1 (centres unmarked) [Example 6c, 2-[2-(4-hydroxy-2-methyl-2,3-dihydro-1H-indol-1-yl)-2-oxoethyl]-6-(morpholin-4-yl)pyrimidin-4(3H)-one]	24
CC1Cc2cc(F)ccc2N1C(=O)Cc1nc(N2CCOCC2)c(F)c(=O)[nH]1 (stereo not drawn) [Example 7a, 5-fluoro-2-[2-((−)-5-fluoro-2-methyl-2,3-dihydroindol-1-yl)-2-oxoethyl]-6-morpholin-4-yl-3H-pyrimidin-4-one]	3
CC1CN(c2cc(=O)[nH]c(CC(=O)N3CCc4c(F)cccc43)n2)CCO1 (centres unmarked) [Example 8b, 2-[2-(4-fluoro-2,3-dihydroindol-1-yl)-2-oxoethyl]-6-(2-methylmorpholin-4-yl)-3H-pyrimidin-4-one]	18
CC1Cc2c(F)cccc2N1C(=O)Cc1nc(N2CCOCC2)c(F)c(=O)[nH]1 (stereo not drawn) [Example 10a, 5-fluoro-2-[2-((+)-2-methyl-4-fluoro-2,3-dihydroindol-1-yl)-2-oxoethyl]-6-morpholin-4-yl-3H-pyrimidin-4-one]	116
CC1Cc2c(F)cccc2N1C(=O)Cc1nc(N2CCOCC2)c(F)c(=O)[nH]1 (stereo not drawn) [Example 11a, 5-fluoro-2-[2-((−)-2-methyl-4-fluoro-2,3-dihydroindol-1-yl)-2-oxoethyl]-6-morpholin-4-yl-3H-pyrimidin-4-one]	24
CC1Cc2cc(F)c(F)cc2N1C(=O)Cc1nc(N2CCOCC2)c(F)c(=O)[nH]1 (stereo not drawn) [Example 12a, 2-[2-((+)-5,6-difluoro-2-methyl-2,3-dihydroindol-1-yl)-2-oxoethyl]-5-fluoro-6-morpholin-4-yl-3H-pyrimidin-4-one]	16
CC1Cc2cc(F)c(F)cc2N1C(=O)Cc1nc(N2CCOCC2)c(F)c(=O)[nH]1 (stereo not drawn) [Example 13a, 2-[2-((−)-5,6-difluoro-2-methyl-2,3-dihydroindol-1-yl)-2-oxoethyl]-5-fluoro-6-morpholin-4-yl-3H-pyrimidin-4-one]	162
CC1Cc2cc(F)ccc2N1C(=O)Cc1nc(N2CCOCC2)c(F)c(=O)n1C (stereo not drawn) [Example 15a, 5-fluoro-2-[2-((+)-5-fluoro-2-methyl-2,3-dihydroindol-1-yl)-2-oxoethyl]-3-methyl-6-morpholin-4-yl-3H-pyrimidin-4-one]	65

— patent publication US9133168B2, “Pyrimidine derivatives, preparation thereof, and pharmaceutical use thereof as akt(pkb) phosphorylation inhibitors” (SANOFI, priority 2010, dated 2015)
